Experimental data from US8729047B2, “Compositions for inhibiting redox-sensitive GTPases” (Board of Regents, The University of Texas System, priority 2010, dated 2014).
Where two headings read alike, the source gives them in different places.

How the values were obtained:
Rho GTPases = assay: Binding of 6-TGDP compared with GDP (Example 2); conditions: Example 2, FIG. 13 values
Protocol: The true dissociation constant (^trueKD 6-TGDP) of Ras, RhoC, RhoA and Rac1 for 6-TGDP was then calculated to be ˜20.7 pM, 212 μM, 208 μM, and 158 μM [6-TGDP] by using a compensation equation, ^trueKD 6-TGDP=^appKD 6-TGDP/(1+[GDP]/^trueKD GDP) (95), in conjunction with the values given [(^appKD 6-TGDP of Ras, RhoC, RhoA, and Rac1=2300, 230, 224, and 245 μM (FIG. 13) and ^trueKD GDP=9 pM, 12 μM, 13 μM and 1.8 μM, respectively. The ^trueKD GDP of Ras, RhoA and Rac1 was determined previously (Lenzen et al. Biochemistry 37, 7420-7430 (1998); Heo et al. Biochemistry 44, 6573-6585 (2005)) and the ^trueKD GDP of RhoC was further determined. Example: ^trueKD 6-TGDP for Ras=2300 μM/(1+1 μM GDP/[…])=[…] [6-TGDP]].

RhoA = target: T1, RhoA (Homo sapiens, UniProt P61586); assay: Competitive binding assay, [3H]GDP-loaded Rho protein titrated with 6-TGDP (FIG. 16A)
T1 construct: made in house; host or cells: E. coli
T1 sequence (P61586 whole entry, species assumed): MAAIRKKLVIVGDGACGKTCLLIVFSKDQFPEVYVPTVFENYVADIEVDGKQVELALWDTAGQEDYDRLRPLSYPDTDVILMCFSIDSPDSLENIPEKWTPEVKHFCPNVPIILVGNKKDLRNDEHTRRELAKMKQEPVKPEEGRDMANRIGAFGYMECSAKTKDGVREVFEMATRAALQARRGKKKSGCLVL
Protocol: FIG. 16. Kinetic properties of RhoC with 6-TGDP in the presence or absence of a redox agent. All kinetic analyses are described elsewhere herein. (A) ^appKD values of Rac1, RhoA, RhoC, and RhoC C20S for 6-TGDP were estimated to be 7.9, 11.6, 11.8, and 11.2 μM, respectively. ^trueKD values of Rac1, RhoA, and RhoC for 6-TGDP were then calculated to be 5.1, 10.8, 11.1, and 10.5 μM, respectively, by using a compensation equation, ^trueKD for 6-TGDP=^appKD for 6-TGDP/(1+[[^3H]GDP]/^trueKD for GDP) (Heo, J., and Hong, I. (2010) Biochemistry 49, 3965-3976), in conjunction with the values given. […] The GDP dissociation rates from RhoC C20S by NO, .NO2, and N2O3 were estimated to be 0.02×10^−3, 0.05×10^−3, and 0.04×10^−3 s^−1, respectively. […] (D) ^appKD values of RhoC for [^3H]GDP in the presence or absence of DTT were estimated to be 22.4 μM and […], respectively. ^appKD values of C20S RhoC for [^3H]GDP in the presence or absence of DTT were determined to be 24.8 μM and 25.2 μM, respectively. […]
(a) A competitive binding assay was performed to determine the binding affinity of Rho GTPase and 6-TGDP. […] Each membrane was washed three times with the assay buffer, and radioactivity was determined using a Beckman-Coulter scintillation counter. The radioactivity of the sample (Rho protein-bound [^3H]GDP) was converted into, and thus plotted, as the fraction of mol GDP per mol total Rho protein. […]

## Nc1nc2c(ncn2[C@@H]2O[C@H](COP(=O)(O)OP(=O)(O)O)[C@@H](O)[C@H]2O)c(=S)[nH]1 [6-TGDP, 6-thioguanosine diphosphate]
Rho GTPases
  binding interaction with 6-TGDP weaker than with GDP: ~15 fold
RhoA; [3H]GDP-loaded Rho protein 1 μM titrated with 6-TGDP, read-out: appKD for 6-TGDP
  Kd: 11.6 µM
RhoA; calculated by compensation equation, read-out: trueKD for 6-TGDP
  Kd: 10.8 µM
